Data: EP0381345B1, “Aqueous liquid desmopressin-CMC pharmaceutical composition” (CORINT, LTD., priority 1989, dated 1990)
Marks after values point to notes of the source that are not given here.

Key:
[1] = in vivo; settings: male, rat, sc, pH 4
[2] = in vivo, iv; cited from earlier work
[3] = tested on: Normal test subjects; settings: in vivo
Protocol: Normal test subjects were loaded with 1.5% body weight of water under constantly maintained conditions, with urine being collected every 30 minutes, as described by J.H. Cort et al., Kidney International. 8:292, 1975, and then they were administered dDAVP intranasally, using a standard 0.1 mg/ml formulation obtained from Ferring AB of Malmo. A portion of the dDAVP was set aside, while Na-CMC was added to another portion to form a solution having a CMC:dDAVP weight ratio of 100:1.

Cmax [1]: 0.027 ng/mL | Tmax [1]: 8.8 min | half-life [1]: 20.5 min
Structure (SMILES): NC(=O)CC[C@@H]1NC(=O)[C@H](Cc2ccccc2)NC(=O)[C@H](Cc2ccc(O)cc2)NC(=O)CCSSC[C@@H](C(=O)N2CCC[C@H]2C(=O)N[C@H](CCCN=C(N)N)C(=O)NCC(N)=O)NC(=O)[C@H](CC(N)=O)NC1=O [dDAVP, desmopressin]
half-life (T1/2) [2]: 17 to 18 min | Peak % Inhibition of Diuretic Urine Flow [3]: -76.7* %
